Measured values as given in PubChem BioAssay AID2060621 (Molecular Pharmacology Branch, DTP, NCI, 2025).

Test system: 324938-238-R-J1-PDC complex spheroids viability
Test: Anticancer human tumor 324938-238-R-J1-PDC patient-derived bladder carcinoma cell line growth inhibition [CLK]
Conditions: for IC50: curve of first compound; for viability, T/C: stronger effect = lower value; active means viability on the fitted dose curve at most 10% of control; inactive means the rest
Text: A high-throughput screen of multi-cell type tumor spheroids was designed to identify active combinations of […] and targeted small molecules. Complex spheroids include a stromal component modeled by human endothelial cells (HUVEC) and fibroblasts modeled by human mesenchymal stem cells (MSCs). The concentration ranges selected for each drug and investigational agent were based upon clinically achievable concentrations if the clinical Cmax of the agent was known.
Compounds. The drugs and investigational agents: cirtuvivint (SM08502; NSC835563), CC-671 (NSC850746), vemurafenib (NSC761431), tapotoclax (NSC804041), sotorasib (NSC818433), adagrasib (NSC831453), MRTX-1133 (NSC836407), BAY2416964 (NSC825713), copanlisib (NSC816437), inavolisib (NSC800729), abemaciclib (NSC768073), osimertinib (NSC779217), entinostat (NSC756642), eltanexor (KPT-8602, NSC794443), venetoclax (NSC766270), ceralasertib (NSC777638), bortezomib (NSC756655), olaparib (NSC753686), talazoparib (NSC767125), alisertib (NSC759677), peposertib (NSC802822), gemcitabine (NSC613327), 5-fluorouracil (NSC19893), SN-38 (NSC673596), oxaliplatin (NSC266046), paclitaxel (NSC125973), and doxorubicin (NSC123127), were obtained from the National Cancer Institute (NCI) Developmental Therapeutics Program Chemical Repository. The FDA-approved anticancer drug set is available from the Developmental Therapeutics Program at https://dtp.cancer.gov/organization/dscb/obtaining/available plates.htm. […] The stock solutions were prepared in dimethyl sulfoxide (DMSO, Sigma-Aldrich, St. Louis, MO, cat. D2650), except for the platinum complexes which were prepared in saline (Quality Biological, Gaithersburg, MD, cat. 114-055-101), at 800-fold the tested concentration and stored at -70 degrees C prior to their use. All drugs and investigational agents were tested over a range starting from a high concentration at or near the clinical Cmax and decreasing in half-log increments. If the clinical Cmax for an agent had not been determined, the highest concentration tested was 10 microM.
Cell Culture. All cells were maintained in an incubator at 37 degrees C and 5% CO2 with 95% humidity. The PDC lines were cultured according to standard operating procedures established by the NCI PDMR. Briefly, all PDCs were thawed and cultured in Matrigel-coated flasks prepared with a working solution of 1X Ham's F-12 nutrient mix, without supplementation (Invitrogen, Waltham, MA, cat. 11765054), 100 U/mL penicillin-streptomycin (Invitrogen, cat. 15140122), and 2.5% Matrigel (Corning Inc., Corning, NY, cat. 354248) for the first three passages. The 947758-054-R-J2-PDC line was cultured in 6B/Colon 1A media, which includes advanced DMEM/F-12 (Thermo Fisher Scientific, cat. 12634028), 10 mM HEPES (Thermo Fisher Scientific, cat. 15630080), 1X GlutaMAX supplement (Thermo Fisher Scientific, cat. 35050061), 0.1 mg/mL primocin (InvivoGen, cat. ant-pm-2), 10% defined fetal bovine serum, heat inactivated (HyClone Laboratories Inc., cat. SH30070.03HI), 1.25 mM N-Acetyl-L-cysteine (Sigma-Aldrich, cat. A9165), 10 mM nicotinamide (Sigma-Aldrich, cat. N0636), 1X B-27 supplement (Thermo Fisher Scientific, cat. 17504044), 1X N-2 supplement (Thermo Fisher Scientific, cat. 17502048), and 10 microM Y-27632 dihydrochloride (Tocris Bioscience, cat. 1254). The 876862-298-R-J1-PDC was cultured in 6E media, which includes all 6B/Colon 1A media components plus 50% L-WRN conditioned media (ATCC, cat. CRL-3276), 50 ng/mL recombinant human EGF recombinant protein (hEGF; Thermo Fisher Scientific, cat. PHG0311), 10 ng/mL recombinant human fibroblast growth factor 10 (hGFG-10; PeproTech, cat. 100-26), 1 ng/mL recombinant human fibroblast growth factor 2 (hFGF-2; PeproTech, cat. 100-18B), and 1 µM prostaglandin E2 (PGE2; Tocris, cat. 2296). The 227483-062-R1-J1-PDC line was cultured in Panc media, containing all 6E components except hFGF-2, with the addition of 500 nM SB-431542 (Selleckchem, cat. S1067) and 10 nM gastrin (Tocris, cat. 3006). […]

[1] = second compound 0.0316 µM, first compound 0.00316 µM
[2] = second compound 0.0316 µM, first compound 0.01 µM
[3] = second compound 0.0316 µM, first compound 0.0316 µM
[4] = second compound 0.0316 µM, first compound 0.1 µM
[5] = second compound 0.0316 µM, first compound 0.316 µM
[6] = second compound 0.0316 µM, first compound 1 µM
[7] = second compound 0.1 µM, first compound 0.00316 µM
[8] = second compound 0.1 µM, first compound 0.01 µM
[9] = second compound 0.1 µM, first compound 0.0316 µM
[10] = second compound 0.1 µM, first compound 0.1 µM
[11] = second compound 0.1 µM, first compound 0.316 µM
[12] = second compound 0.1 µM, first compound 1 µM
[13] = second compound 0.316 µM, first compound 0.00316 µM
[14] = second compound 0.316 µM, first compound 0.01 µM
[15] = second compound 0.316 µM, first compound 0.0316 µM
[16] = second compound 0.316 µM, first compound 0.1 µM
[17] = second compound 0.316 µM, first compound 0.316 µM
[18] = second compound 0.316 µM, first compound 1 µM
[19] = second compound 1 µM, first compound 0.00316 µM
[20] = second compound 1 µM, first compound 0.01 µM
[21] = second compound 1 µM, first compound 0.0316 µM
[22] = second compound 1 µM, first compound 0.1 µM
[23] = second compound 1 µM, first compound 0.316 µM
[24] = second compound 1 µM, first compound 1 µM
[25] = second compound 3.16 µM, first compound 0.00316 µM
[26] = second compound 3.16 µM, first compound 0.01 µM
[27] = second compound 3.16 µM, first compound 0.0316 µM
[28] = second compound 3.16 µM, first compound 0.1 µM
[29] = second compound 3.16 µM, first compound 0.316 µM
[30] = second compound 3.16 µM, first compound 1 µM
[31] = second compound 10 µM, first compound 0.00316 µM
[32] = second compound 10 µM, first compound 0.01 µM
[33] = second compound 10 µM, first compound 0.0316 µM
[34] = second compound 10 µM, first compound 0.1 µM
[35] = second compound 10 µM, first compound 0.316 µM
[36] = second compound 10 µM, first compound 1 µM
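Further: viability read after seven days of drug exposure.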
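Wherever viability, T/C is given: 100% = DMSO vehicle control wells.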

CCN1CCN(Cc2ccc(Nc3ncc(F)c(-c4cc(F)c5nc(C)n(C(C)C)c5c4)n3)nc2)CC1 + CN1CCN(c2cc(C(=O)Nc3cc4cc(-c5cnn(C)c5)ccc4cn3)ccn2)CC1
5.84 nM: IC50 (second compound 0.1 µM)
< 3.16 nM: IC50 (second compound 0.316 µM) | IC50 (second compound 1 µM) | IC50 (second compound 3.16 µM) | IC50 (second compound 10 µM)
active: viability, T/C [19] 1.45% | viability, T/C [20] 1.54% | viability, T/C [21] 1.57% | viability, T/C [22] 2.36% | viability, T/C [23] 1.73% | viability, T/C [24] 0.69% | viability, T/C [25] 0.12% | viability, T/C [26] 0.84% | viability, T/C [27] 0.19% | viability, T/C [28] 0.14% | viability, T/C [29] 0.32% | viability, T/C [30] 0.84% | viability, T/C [31] 0.09% | viability, T/C [32] 0.19% | viability, T/C [33] 0.2% | viability, T/C [34] 0.11% | viability, T/C [35] 0.15% | viability, T/C [36] 0.2%
inactive: viability, T/C [1] 65% | viability, T/C [2] 72.9% | viability, T/C [3] 56.3% | viability, T/C [4] 46.5% | viability, T/C [5] 34.2% | viability, T/C [6] 35.5% | viability, T/C [7] 53% | viability, T/C [8] 47.2% | viability, T/C [9] 42.1% | viability, T/C [10] 42.3% | viability, T/C [11] 34.2% | viability, T/C [12] 31.3% | viability, T/C [13] 23.8% | viability, T/C [14] 24.7% | viability, T/C [15] 25% | viability, T/C [16] 25.1% | viability, T/C [17] 28.2% | viability, T/C [18] 31.1%
64.8 nM: IC50 (second compound 0.0316 µM)

COc1c(OCCCN2CCOCC2)ccc2c3n(c(=NC(=O)c4cnc(N)nc4)nc12)CCN3 + CN1CCN(c2cc(C(=O)Nc3cc4cc(-c5cnn(C)c5)ccc4cn3)ccn2)CC1
< 3.16 nM: IC50 (second compound 0.316 µM) | IC50 (second compound 1 µM) | IC50 (second compound 3.16 µM) | IC50 (second compound 10 µM)
active: viability, T/C [5] 7.23% | viability, T/C [6] 1.32% | viability, T/C [11] 6.5% | viability, T/C [12] 1.24% | viability, T/C [16] 8.98% | viability, T/C [17] 2.42% | viability, T/C [18] 0.55% | viability, T/C [19] 2.31% | viability, T/C [20] 2.19% | viability, T/C [21] 1.42% | viability, T/C [22] 0.41% | viability, T/C [23] 0.11% | viability, T/C [24] 0.13% | viability, T/C [25] 0.09% | viability, T/C [26] 0.16% | viability, T/C [27] 0.14% | viability, T/C [28] 0.07% | viability, T/C [29] 0.08% | viability, T/C [30] 0.13% | viability, T/C [31] 0.05% | viability, T/C [32] 0.24% | viability, T/C [33] 0.16% | viability, T/C [34] 0.09% | viability, T/C [35] 0.29% | viability, T/C [36] 0.16%
5.43 nM: IC50 (second compound 0.1 µM)
17.3 nM: IC50 (second compound 0.0316 µM)
inactive: viability, T/C [1] 76.1% | viability, T/C [2] 59.6% | viability, T/C [3] 39.2% | viability, T/C [4] 21.2% | viability, T/C [7] 55.8% | viability, T/C [8] 43.5% | viability, T/C [9] 29.5% | viability, T/C [10] 17.6% | viability, T/C [13] 23.9% | viability, T/C [14] 19.4% | viability, T/C [15] 15.1%
